Assays:
Assay in all cases: relative viability (nuclei count vs DMSO), 5 days (fraction); higher = more cells survive
Mirin + OSI-027 = compound: N=C1NC(=O)/C(=C/c2ccc(O)cc2)S1 [Mirin] + COc1cccc2cc(-c3nc([C@H]4CC[C@H](C(=O)O)CC4)n4ncnc(N)c34)[nH]c12 [OSI-027] (partner 0.5 µM)
Method in brief: (§1)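 Relative viability was taken as the ratio of nuclei in treated wells to nuclei in vehicle wells. Lung cancer cell lines in 1536-well plates received compounds by pin tool one day after seeding, either one drug alone or a fixed anchor-drug dose plus five library-drug doses (not always all listed) in √10 steps. Nuclei were counted on 4× images after 5 days of treatment, and values are medians of duplicate plates.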

Mirin + Pemetrexed = compound: N=C1NC(=O)/C(=C/c2ccc(O)cc2)S1 [Mirin] + Nc1nc2[nH]cc(CCc3ccc(C(=O)N[C@@H](CCC(=O)O)C(=O)O)cc3)c2c(=O)[nH]1 [Pemetrexed] (partner 0.2 µM)
Method in brief: as §1

Mirin + AZD7762 = compound: N=C1NC(=O)/C(=C/c2ccc(O)cc2)S1 [Mirin] + NC(=O)Nc1cc(-c2cccc(F)c2)sc1C(=O)N[C@H]1CCCNC1 [AZD7762] (partner 0.2 µM)
Method in brief: as §1

[1] = compound: CCn1c(-c2nonc2N)nc2cnc(Oc3cccc(NC(=O)c4ccc(OCCN5CCOCC5)cc4)c3)cc21 + C[C@]1(O)C[C@@H](c2nc(-c3ccc4ccc(-c5ccccc5)nc4c3)c3c(N)nccn32)C1 [Linsitinib] (partner 1 µM)
Method in brief: as §1

Cell Line | relative viability (Mirin + OSI-027; first compound 0.25 µM) | relative viability (Mirin + OSI-027; first compound 0.7906 µM) | relative viability (Mirin + OSI-027; first compound 2.5 µM) | relative viability (Mirin + OSI-027; first compound 25 µM) | relative viability (Mirin + Pemetrexed; first compound 0.25 µM) | relative viability (Mirin + Pemetrexed; first compound 0.7906 µM) | relative viability (Mirin + Pemetrexed; first compound 2.5 µM) | relative viability (Mirin + Pemetrexed; first compound 7.906 µM) | relative viability (Mirin + Pemetrexed; first compound 25 µM) | relative viability (Mirin + AZD7762; first compound 0.25 µM) | relative viability (Mirin + AZD7762; first compound 0.7906 µM) | relative viability (Mirin + AZD7762; first compound 2.5 µM) | relative viability (Mirin + AZD7762; first compound 7.906 µM) | relative viability (Mirin + AZD7762; first compound 25 µM) | relative viability ([1]; first compound 0.04 µM) | relative viability ([1]; first compound 0.1265 µM) | relative viability ([1]; first compound 1.265 µM) | relative viability ([1]; first compound 4 µM) | relative viability (Mirin + OSI-027; first compound 7.906 µM) | relative viability ([1]; first compound 0.4 µM)
NCI-H1792 | 0.724 | 0.746 | 0.745 | 0.634 | 0.772 | 0.653 | 1.15 | 0.708 | 0.844 | 0.729 | 0.803 | 0.826 | 0.636 | 0.77 | 0.65 | 0.572 | 0.423 | 0.512 | – | –
NCI-H647 | 0.759 | 0.688 | 0.572 | 0.503 | 0.198 | 0.161 | 0.146 | 0.172 | 0.111 | 0.415 | 0.366 | 0.465 | 0.593 | 0.587 | 0.993 | 1 | 0.729 | 0.558 | 0.645 | 1.01
NCI-H2126 | 0.76 | 0.655 | 0.585 | 0.579 | 0.754 | 0.574 | 0.758 | 0.855 | 0.686 | 1.11 | 1.03 | 1.05 | 1.11 | 0.951 | 0.759 | 0.704 | 0.759 | 0.742 | 0.773 | 0.679
EMC-BAC-2 | 0.389 | 0.378 | 0.337 | 0.312 | 0.475 | 0.431 | 0.452 | 0.375 | 0.41 | 0.977 | 1.1 | 1.26 | 0.92 | 1.05 | 1.03 | 0.839 | 0.834 | 0.877 | 0.307 | 0.814
NCI-H1355 | 0.411 | 0.376 | 0.379 | 0.424 | 1.06 | 1.09 | 1.08 | 1 | 1.11 | 0.776 | 0.912 | 0.845 | 0.66 | 0.799 | 0.904 | 0.77 | 0.834 | 0.812 | 0.406 | 0.802
NCI-H2347 | 0.459 | 0.426 | 0.4 | 0.36 | 0.424 | 0.474 | 0.47 | 0.422 | 0.473 | 0.946 | 0.786 | 0.861 | 0.669 | 0.704 | 0.981 | 0.927 | 0.447 | 0.48 | 0.476 | 0.93
NCI-H1651 | 0.782 | 0.701 | 0.877 | 0.662 | 0.241 | 0.532 | 0.599 | 0.532 | 0.612 | 0.424 | 0.598 | 0.532 | 0.308 | 0.477 | 1.15 | 1.1 | 0.859 | 0.642 | 0.549 | 0.986
NCI-H1975 | 0.783 | 0.733 | 0.692 | 0.626 | 0.324 | 0.256 | 0.272 | 0.274 | 0.252 | 0.699 | 0.91 | 0.689 | 0.729 | 0.725 | 0.833 | 0.65 | 0.385 | 0.293 | 0.82 | 0.895
HCC-44 | 0.441 | 0.491 | 0.483 | 0.485 | 0.604 | 0.835 | 0.677 | 0.633 | 0.694 | 1.05 | 1.22 | 1.04 | 1.03 | 1.11 | 0.671 | 0.709 | 0.538 | 0.509 | 0.428 | 0.684
LOU-NH91 | 0.737 | 0.769 | 0.751 | 0.832 | 0.375 | 0.389 | 0.357 | 0.399 | 0.376 | 0.799 | 0.782 | 0.754 | 0.713 | 0.854 | 1 | 0.748 | 0.632 | 0.611 | 0.731 | 0.744
NCI-H460 | 0.612 | 0.672 | 0.748 | 0.389 | 0.0601 | 0.0695 | 0.0719 | 0.0635 | 0.0557 | 0.625 | 0.921 | 0.665 | 0.661 | 0.876 | 1.35 | 0.794 | 0.144 | 0.135 | 0.55 | 0.513
NCI-H650 | 0.478 | 0.628 | 0.523 | 0.58 | 1.05 | 0.865 | 0.928 | 0.711 | 0.94 | 1.1 | 1.03 | 0.968 | 0.992 | 0.974 | 1.01 | 0.667 | 0.304 | 0.426 | – | 0.521
NCI-H1915 | 0.586 | – | 0.625 | 0.6 | 0.469 | 0.484 | 0.504 | 0.434 | 0.433 | 0.674 | 0.726 | 0.712 | 0.59 | 0.745 | 1.16 | 1.11 | 1.07 | 1.06 | 0.579 | 1.07
NCI-H1734 | 0.636 | 0.574 | 0.525 | 0.488 | 0.441 | 0.44 | 0.414 | 0.355 | 0.346 | 0.529 | 0.42 | 0.549 | 0.498 | 0.483 | 1.06 | 0.796 | 0.648 | 0.485 | 0.548 | 0.807
NCI-H1993 | 0.549 | – | 0.578 | 0.539 | 0.625 | 0.633 | 0.578 | 0.541 | 0.584 | 0.897 | 0.628 | 0.679 | 0.808 | 0.971 | 0.701 | 0.762 | 0.699 | 0.702 | 0.496 | –
LK-2 | 0.195 | 0.154 | 0.198 | 0.146 | 0.129 | – | 0.257 | 0.164 | 0.257 | 0.22 | – | 0.338 | 0.209 | 0.185 | 0.522 | 0.691 | 0.342 | 0.74 | 0.138 | 0.572

Reference: the supplement of paper PMC10307832
